Measurements published in US20060094722A1 (Eisai Co., Ltd., priority 2002, published 2006).
Counter-ions that a name gives are not always drawn. Like-named read-outs stand apart in the source and are kept apart here.

Tests used:
[1] = test system: DPPIV-deficient male Fisher rats
Experimental: Animals: DPPIV-deficient male Fisher rats (purchased from Charles River Japan, Inc.)
Each test compound was suspended in a solution of 0.5% methyl cellulose at the doses indicated in Table 2, and then administered orally at a volume of 5 mL/kg. The vehicle control group was orally administered a solution of 0.5% methyl cellulose at a volume of 5 mL/kg.
An unanesthetized rat was lightly cut at the caudal vein with a razor blade and bled immediately before, and at 1, 3, and 5 hours after the administration of a test compound or a solution of 0.5% methyl cellulose. 250 μL of blood was collected from the rat using a heparinized capillary and transferred into a centrifugation tube. The supernatant obtained by centrifugation (at 10000 g at 4° C. for 2 minutes) was assayed for GLP-1 level using Active GLP-1 ELISA kit (Linco).

BALB/c AnCrj mice = settings: 5-FU 60 mg/kg p.o. for 3 days
Experimental: Animals: BALB/c AnCrj Mice (Purchased from Charles River Japan, Inc.)
5-FU (purchased from Sigma) was suspended in a solution of 0.5% methyl cellulose, and then administered orally at a volume of 10 mL/kg/day (8 a.m. to 9 a.m.) for 3 days (60 mg/kg). […] The vehicle control group was orally administered a solution of 0.5% methyl cellulose at a volume of 10 mL/kg.
Mice were fasted for 18 hours following the afternoon administration on the third day of the administration series. On the following day, the mice were killed by cervical dislocation, and then the whole small intestine was excised and the wet weight was measured.

[2] = test system: DPPIV-intact normal male Fisher rats; assay: Influences of metformin and DPPIV inhibitors (Examples 82, 119, 120, 122, 229, 267), singly or in combination, on GLP-1 level in normal rats; type: in vivo, rat; settings: 3 hours
Experimental: Animals: DPPIV-Intact Normal Male Fisher Rats (Purchased from CLEA Japan, Inc.)
250 μL of blood was collected from the rat using a heparinized capillary and transferred into a centrifugation tube.

[3] = target: T1, DPPIV obtained from swine kidney (Sus scrofa, UniProt P22411); assay: Assay for the DPPIV-inhibiting activity; type: biochemical; settings: DPPIV 10 mU/mL, Gly-Pro-p-nitroanilide 0.33 mM, absorbance 405 nm
T1 construct: DPPIV obtained from swine kidney; from tissue; host or cells: swine kidney
Experimental: DPPIV obtained from swine kidney was dissolved in a reaction buffer (50 mM Tris-HCl (pH 7.4)/0.1% BSA) at a fmal concentration of 10 mU/mL. A 110 μL aliquot of this enzyme solution was added to the reaction system, and then 15 μL of an agent was added. The reaction solution was incubated at room temperature for 20 minutes. 25 μL of a solution containing 2 mM Gly-Pro-p-nitroanilide was added to the reaction solution (at the final concentration of 0.33 mM) to start the enzyme reaction. The reaction time was 20 minutes. 25 μL of 1N phosphate solution was added to stop the reaction. […] The degree of inhibition to the enzyme reaction was determined, and IC50 was computed based on the absorbance.

T1 sequence (P22411 whole entry): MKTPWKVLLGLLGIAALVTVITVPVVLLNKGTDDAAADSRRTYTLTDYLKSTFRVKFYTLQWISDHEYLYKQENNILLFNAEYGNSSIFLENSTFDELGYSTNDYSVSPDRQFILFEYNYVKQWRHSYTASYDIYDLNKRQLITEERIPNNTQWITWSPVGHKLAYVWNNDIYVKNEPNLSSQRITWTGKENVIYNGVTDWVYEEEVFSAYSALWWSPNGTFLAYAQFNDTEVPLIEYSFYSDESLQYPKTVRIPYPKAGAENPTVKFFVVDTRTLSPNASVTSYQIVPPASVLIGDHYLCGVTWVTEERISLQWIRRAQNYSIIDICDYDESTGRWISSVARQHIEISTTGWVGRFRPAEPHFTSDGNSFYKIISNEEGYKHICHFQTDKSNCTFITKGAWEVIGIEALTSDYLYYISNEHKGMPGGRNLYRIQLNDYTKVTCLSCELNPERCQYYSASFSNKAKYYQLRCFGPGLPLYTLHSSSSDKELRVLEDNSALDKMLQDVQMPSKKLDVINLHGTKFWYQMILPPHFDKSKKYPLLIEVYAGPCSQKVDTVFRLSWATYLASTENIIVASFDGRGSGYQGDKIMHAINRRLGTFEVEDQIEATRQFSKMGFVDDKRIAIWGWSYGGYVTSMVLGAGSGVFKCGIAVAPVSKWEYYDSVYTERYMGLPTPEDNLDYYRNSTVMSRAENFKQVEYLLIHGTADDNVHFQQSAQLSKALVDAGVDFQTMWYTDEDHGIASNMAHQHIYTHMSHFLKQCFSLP

In the case of `CCCCNC(=N)NC(=N)N` [Buformin, buformin], the “GLP-1 concentration at each time point (hr) after oral administration (% of Pre)” value ([1]; 30 mg/kg p.o., 0 hr) is reported as 100 ± 0.0 % of Pre, the “GLP-1 concentration at each time point (hr) after oral administration (% of Pre)” value ([1]; 30 mg/kg p.o., 1 hr) is reported as 118.7 ± 9.3 % of Pre and the “GLP-1 concentration at each time point (hr) after oral administration (% of Pre)” value ([1]; 30 mg/kg p.o., 3 hr) is reported as 122.7 ± 7.1 % of Pre. The “GLP-1 concentration at each time point (hr) after oral administration (% of Pre)” value ([1]; 30 mg/kg p.o., 5 hr) was 114.6 ± 4.4 % of Pre, the “GLP-1 concentration at each time point (hr) after oral administration (% of Pre)” value ([1]; 100 mg/kg p.o., 0 hr) was 100 ± 0.0 % of Pre and the “GLP-1 concentration at each time point (hr) after oral administration (% of Pre)” value ([1]; 100 mg/kg p.o., 1 hr) was 163.6 ± 19.6 % of Pre. The “GLP-1 concentration at each time point (hr) after oral administration (% of Pre)” value ([1]; 100 mg/kg p.o., 1 hr, listed as buformin) was “significantly elevated”, the “GLP-1 concentration at each time point (hr) after oral administration (% of Pre)” value ([1]; 100 mg/kg p.o., 3 hr) was 171.2 ± 9.1 % of Pre and the “GLP-1 concentration at each time point (hr) after oral administration (% of Pre)” value ([1]; 100 mg/kg p.o., 5 hr) was 195.8 ± 36.6 % of Pre. For the same compound, the “GLP-1 concentration at each time point (hr) after oral administration (% of Pre)” value ([1]; 100 mg/kg p.o., 5 hr, listed as buformin) was “significantly elevated”.
With `O=c1[nH]cc(F)c(=O)[nH]1` [Example 5-FU, 5-Fluorouracil] the “wet weight of mouse small intestine” value (BALB/c AnCrj mice) was “significantly decreased”.
In the case of `CC#CCn1c(N2CCNCC2)nc2nc(C#N)n(C)c(=O)c21.O=C(O)C(F)(F)F` [Example 82, 7-(2-Butynyl)-2-cyano-1-methyl-8-(piperazin-1-yl)-1,7-dihydropurin-6-one trifluoroacetate], the “GLP-1 concentration 3 hours after oral administration (% of Pre)” value (from here on “GLP-1 concentration 3 hours … (% of Pre)”) ([2]; 20 mg/kg p.o.) is reported as 97.3 ± 2.1 % of Pre.
With `CC#CCn1c(N2CCNCC2)nc2cnn(C)c(=O)c21` [Example 119, 3-(2-Butynyl)-5-methyl-2-(piperazin-1-yl)-3,5-dihydroimidazo[4,5-d]pyridazin-4-one] the IC50 ([3]; read-out: IC50) was 154 nM and the “GLP-1 concentration 3 hours … (% of Pre)” value ([2]; 10 mg/kg p.o.) was 98.9 ± 2.2 % of Pre.
With `CC#CCn1c(N2CCCC(N)C2)nc2cnn(C)c(=O)c21.O=C(O)C(F)(F)F` (centres unmarked) [Example 120, 2-(3-Aminopiperidin-1-yl)-3-(2-butynyl)-5-methyl-3,5-dihydroimidazo[4,5-d]pyridazin-4-one trifluoroacetate] the “GLP-1 concentration 3 hours … (% of Pre)” value ([2]; 10 mg/kg p.o.) was 104.8 ± 2.9 % of Pre.
`CC#CCn1c(N2CCNCC2)nc2nc(Oc3ccccc3C(N)=O)n(C)c(=O)c21` [Example 122, 2-[7-(2-Butynyl)-1-methyl-6-oxo-8-(piperazin-1-yl)-6,7-dihydro-1H-purin-2-yloxy]benzamide] was tested, and the IC50 ([3]; read-out: IC50) was 15.3 nM and the “GLP-1 concentration 3 hours … (% of Pre)” value ([2]; 10 mg/kg p.o.) was 108.2 ± 6.6 % of Pre.
For `CC#CCn1c(N2CCNCC2)nc2nc(C#N)n(Cc3ccccc3C#N)c(=O)c21.Cl` [Example 229, 7-(2-Butynyl)-1-(2-cyanobenzyl)-6-oxo-8-(piperazin-1-yl)-6,7-dihydro-1H-purine-2-carbonitrile hydrochloride], the “GLP-1 concentration 3 hours … (% of Pre)” value ([2]; 10 mg/kg p.o.) was 102.5 ± 1.7 % of Pre.
For `CC#CCn1c(N2CCNCC2)nc2cnn(Cc3ccccc3C#N)c(=O)c21.O=C(O)C(F)(F)F` [Example 267, 2-[3-(2-Butynyl)-4-oxo-2-(piperazin-1-yl)-3,4-dihydroimidazo[4,5-d]pyridazin-5-ylmethyl]benzonitrile trifluoroacetate], the “GLP-1 concentration 3 hours … (% of Pre)” value ([2]; 10 mg/kg p.o.) was 110.0 ± 9.0 % of Pre.
`CC#CCn1c(N2CCNCC2)nc2c1c(=O)n(CCc1ccccc1)c(=O)n2CC(=O)N1CCCC1` [Example 418, 7-(2-Butynyl)-3-[2-oxo-2-(pyrrolidin-1-yl)ethyl]-1-(2-phenethyl)-8-(piperazin-1-yl)-3,7-dihydro purine-2,6-dione hydrochloride] gave an IC50 ([3]; IC50 (nM)) of 1.14 nM.
For `CC#CCn1c(N2CCNCC2)nc2c1c(=O)n(CCc1ccccc1)c(=O)n2CC(=O)NC` [Example 419, 2-[7-(2-Butynyl)-2,6-dioxo-1-(2-phenethyl)-8-(piperazin-1-yl)-1,2,6,7-tetrahydropurin-3-yl]-N-methylacetamide hydrochloride], the IC50 ([3]; IC50 (nM)) was 1.55 nM.
With `CC#CCn1c(N2CCNCC2)nc2c1c(=O)n(CCc1ccccc1)c(=O)n2CC(=O)NC1CC1` [Example 420, 2-[7-(2-Butynyl)-2,6-dioxo-1-(2-phenethyl)-8-(piperazin-1-yl)-1,2,6,7-tetrahydropurin-3-yl]-N-cyclopropyl acetamide hydrochloride] the IC50 ([3]; IC50 (nM)) was 1.7 nM.
`CC#CCn1c(N2CCNCC2)nc2c1c(=O)n(CCc1ccccc1)c(=O)n2CC(=O)Nc1ccccc1` [Example 421, 2-[7-(2-Butynyl)-2,6-dioxo-1-(2-phenethyl)-8-(piperazin-1-yl)-1,2,6,7-tetrahydropurin-3-yl]-N-phenylacetamide hydrochloride] showed an IC50 ([3]; IC50 (nM)) of 3.37 nM.
`C#CCNC(=O)Cn1c(=O)n(CCc2ccccc2)c(=O)c2c1nc(N1CCNCC1)n2CC#CC` [Example 422, 2-[7-(2-Butynyl)-2,6-dioxo-1-(2-phenethyl)-8-(piperazin-1-yl)-1,2,6,7-tetrahydropurin-3-yl]-N-(2-propynyl) acetamide hydrochloride] gave an IC50 ([3]; IC50 (nM)) of 0.472 nM.
With `[H]/N=C(/N)N/C(=N/[H])NCCc1ccccc1` [Phenformin, phenformin] the “GLP-1 concentration at each time point (hr) after oral administration (% of Pre)” value ([1]; 30 mg/kg p.o., 0 hr) was 100 ± 0.0 % of Pre, the “GLP-1 concentration at each time point (hr) after oral administration (% of Pre)” value ([1]; 30 mg/kg p.o., 1 hr) was 125.3 ± 10.7 % of Pre and the “GLP-1 concentration at each time point (hr) after oral administration (% of Pre)” value ([1]; 30 mg/kg p.o., 3 hr) was 120.0 ± 7.2 % of Pre. The “GLP-1 concentration at each time point (hr) after oral administration (% of Pre)” value ([1]; 30 mg/kg p.o., 5 hr) was 126.7 ± 10.7 % of Pre, the “GLP-1 concentration at each time point (hr) after oral administration (% of Pre)” value ([1]; 100 mg/kg p.o., 0 hr) was 100 ± 0.0 % of Pre and the “GLP-1 concentration at each time point (hr) after oral administration (% of Pre)” value ([1]; 100 mg/kg p.o., 1 hr) was 316.9 ± 26.4 % of Pre. For the same compound, the “GLP-1 concentration at each time point (hr) after oral administration (% of Pre)” value ([1]; 100 mg/kg p.o., 1 hr, listed as phenformin) was “significantly elevated”, the “GLP-1 concentration at each time point (hr) after oral administration (% of Pre)” value ([1]; 100 mg/kg p.o., 3 hr) was 330.7 ± 112.4 % of Pre and the “GLP-1 concentration at each time point (hr) after oral administration (% of Pre)” value ([1]; 100 mg/kg p.o., 3 hr, listed as phenformin) was “significantly elevated”. For the same compound, the “GLP-1 concentration at each time point (hr) after oral administration (% of Pre)” value ([1]; 100 mg/kg p.o., 5 hr) was 236.5 ± 20.5 % of Pre and the “GLP-1 concentration at each time point (hr) after oral administration (% of Pre)” value ([1]; 100 mg/kg p.o., 5 hr, listed as phenformin) was “significantly elevated”.
